Series [1] in a line: Ex vivo radiometabolite analysis in CD-1 mice. On the procedure: Female adult CD-1 mice (25–42 g body weight) were used for radiometabolite analysis of [^18F]JHU94620-d4 (n = 2, 33 and 34 MBq) and [^18F]JHU94620-d8 (n = 3, 26–33 MBq) at 30 min after intravenous tail vein injection of the radiotracer to allow for the comparison of radiometabolite analysis of [^18F]JHU94620 (Moldovan et al. [2016]). The mice were immobilized by short isoflurane narcosis for the injection of the radiotracer in a restrainer and awakened mice were kept in an isolated cage until euthanisation by cervical dislocation under isoflurane narcosis. Male Wistar rats (n = 12, 613–794 g) were used for radiometabolite analysis of [^18F]JHU94620-d8 at different time points (5, 15, 30 and 60 min p.i.) after intravenous tail vein injection of the radiotracer (37–74 MBq) for the correction of the input function in pharmacokinetic analysis. Rats were kept under isoflurane narcosis (gas mixture: 2.5% isoflurane and O2) on a warmed plate until euthanization by decapitation of deep narcotized animals. Plasma samples were obtained by centrifugation with 5500 g of blood samples for 2 min at 4 °C. Resected tissues brain and spleen were kept on ice and minced for 3 × 20 s with adding 0.5 to 1 mL of 0.9% NaCl using a Precellys lysing kit and Minilys homogenizer (Bertin Technologies SAS, Montigny-le-Bretonneux, France).
The samples were further processed for subsequent radio-chromatographic analyses. Two consecutive extractions were performed in duplicates for plasma and brain determinations. Plasma, brain and spleen samples were added to the four time the volume of an ice-cold MeOH/H2O mixture (9:1, v/v). The samples were vortexed for 3 min, incubated on ice for 5 min and centrifuged at 8,600 g for 5 min. Supernatants were collected and the precipitates were re-dissolved in 100 µL of extraction solvent and the extraction procedure was repeated. The activities of supernatants and precipitates were measured in a γ-counter (1480 WIZARD, Perkin Elmer), and the extraction efficiencies were calculated as the ratio of radioactivity in the supernatant to the radioactivity in the original sample (supernatant + precipitate). The supernatants from both extractions were combined, concentrated at 70 °C under argon stream up to a remaining volume of 100 µL, and subsequently analysed by analytical radio-HPLC (method A or B).

The next series deals with T1, human CB2R (hCB2R) (Homo sapiens, UniProt P34972).
T1 construct: expressed in transfected cells; host or cells: CHO(hCB2R) cells, obtained from Paul L. Prather, University of Arkansas for Medical Sciences
In words: Homologous competition binding, CHO(hCB2R) cell membranes. On the procedure:
For binding studies crude homogenates of CHO(hCB2R) cells (obtained from Paul L. Prather, Department of Pharmacology and Toxicology, College of Medicine, University of Arkansas for Medical Sciences, USA) were incubated with the reference compound (self-blocking) or the CB2R-specific partial agonist GW405833 (Tocris Bioscience, Bristol, UK) with indicated concentrations at room temperature for 90 min. The total volume of 1 mL of each sample consisted of 600 µL incubation buffer (50 mM Tris HCl pH7.4, 5 mM MgCl2, 1 mM EDTA and 1% Bovine Serum Albumin), 200 µL cell membrane homogenates, 100 µL competitor or binding buffer (total binding) and 100 µl of binding buffer with [^18F]JHU94620-d8 (about 100 kBq per vial, corresponding to 0.8 to 1.6 nM). Incubation was terminated by rapid filtration through a GF-B glass fibre filter, pre-treated with 0.5% PVP with 0.1% Tween 20 solution, using a 48-well cell harvester, washed six times with buffer and filter bound activity was subsequently measured in a γ-counter (1480 WIZARD, Perkin Elmer, Turku, Finland).
The KD values were calculated with GraphPad Prism according to the modified Cheng-Prusoff method for homologous competitive binding studies, where the KD = Ki = IC50—[radioligand] and the Bmax = specific binding / [radioligand] / ((KD + [radioligand])) (Motulsky and Neubig [2000]), assuming a total protein content of 8.2% (1.3 10^–4 µg protein per voxel) in the spleen (Zaia et al. [2000]) or by determining the protein concentration of the cell membrane lysates using a BCA assay (Thermo Scientific, Braunschweig, Germany). The fractional occupancy defined as occupied binding sites per total binding sites is used to describe the binding fraction specifically bound to CB2R compared to unspecific binding, where [L] is the concentration of the ligand at the start of incubation.

Series [2] is classed as in vitro ADME. As to conditions: Wistar, rat. On the procedure:
From the wildtype rats used for in vivo metabolism studies a hematocrit content of 0.56 ± 0.04 (n = 11) was determined by a 5 min centrifugation of 50 µl blood in a hematocrit centrifuge at 500 g. The free plasma fraction (fp) of [^18F]JHU94620-d8 was determined gravimetrically by ultrafiltration of 100 µl rat plasma samples incubated for 5, 15, 30 and 60 min at 37 °C for 20 min at 14,000 g utilizing Nanosep® centrifugal filters (10 kDa, Pall Laboratory, USA). The brain PET images were co-registered to the PMOD integrated Px Rat (W. Schiffer) T2 MR template and the brain stem, cerebellum, left cortex and left midbrain region from the corresponding brain atlas were used for the determination of the regional TACs. Due to high spillover signals from the hCB2R(D80N) expressing region not all provided atlas regions could be evaluated. Subsequently, the total tissue distribution (VT) was estimated by 2-tissue compartment modelling. For correction of the TACs, an averaged image-derived input function (pIDIF, plasma-to-whole blood ratio corrected), determined in biodistribution studies and the parent fraction derived from metabolism studies in Wistar rats (Watabe fit) and pIDIF (3-exponential fit) were integrated into the modelling process. The binding potential was estimated by a simplified reference tissue modelling (SRTM) using the cerebellar region as reference. […]

Setting [3] is: female, CD-1, mouse, in vivo, 30 min.

The text below walks through data of paper PMC11666850, “Development and evaluation of deuterated [^18F]JHU94620 isotopologues for the non-invasive assessment of the cannabinoid type 2 receptor in brain” (EJNMMI Radiopharmacy and Chemistry, 2024).

T1 sequence (P34972 whole entry): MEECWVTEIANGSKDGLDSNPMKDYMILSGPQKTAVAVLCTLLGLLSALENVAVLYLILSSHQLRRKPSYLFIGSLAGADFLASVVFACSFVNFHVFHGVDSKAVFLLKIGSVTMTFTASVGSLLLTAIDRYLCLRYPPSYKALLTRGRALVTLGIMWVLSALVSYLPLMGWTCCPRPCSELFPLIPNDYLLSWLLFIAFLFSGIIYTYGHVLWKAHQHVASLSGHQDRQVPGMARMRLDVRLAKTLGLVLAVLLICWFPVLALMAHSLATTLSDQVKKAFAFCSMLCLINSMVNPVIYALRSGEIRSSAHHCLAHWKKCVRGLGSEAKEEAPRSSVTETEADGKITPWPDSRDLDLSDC

For `[2H]C([2H])([18F])C([2H])([2H])C([2H])([2H])C([2H])([2H])n1c(C)c(C)s/c1=N\C(=O)C1C(C)(C)C1(C)C` [[^18F]JHU94620-d8], the “percentage printed at the radiotracer peak of the representative radio-HPLC chromatogram (Mice)” value in series [1] (CD-1, mouse, in vivo, 30 min) worked out at 80%. Besides, in series [1] (CD-1 mice, brain, 30 min p.i.), the “parent fraction in brain, higher compared to the non-deuterated isotopologue” value turned out to be 50%. Besides, in series [1] (CD-1 mice, brain, 30 min p.i., mean ± SD), the “parent fraction in brain” value is given as 0.72 ± 0.05. In addition, in series [1] (female, CD-1, mouse, in vivo, 0.5 h), the “in vivo metabolic stability (comparison in words)” value is “slightly superior to [^18F]JHU94620-d4”. In series [1] (setting [3]), the “parent fraction in blood plasma” value is listed as 0.13 ± 0.04 and the “parent fraction in spleen” value amounted to 0.87 ± 0.10. Further, at human CB2R (hCB2R), binding was put at a Kd of 1.47 nM. This molecule registered a Bmax at human CB2R (hCB2R) (CHO(hCB2R) cell membrane fractions) of 2.7 pmol mg^−1 protein. Moreover, in series [2], the “free plasma fraction (fp)” value is 0.3 ± 0.1.
